The values that follow come from patent publication US10016430B2, “1-[2-(aminomethyl)benzyl]-2-thioxo-1,2,3,5-tetrahydro-4H-pyrrolo[3,2-d]pyrimidin-4-ones as inhibitors of myeloperoxidase” (AstraZeneca AB, priority 2014, dated 2018).

The assay has as its target activated MPO (Homo sapiens (Human), UniProt P05164). Description: Urate production by activated MPO incubated with xanthine, LC-MS. Type of assay: biochemical. The settings on record: activated MPO incubated with xanthine and titrated compound for 80 min, FIG. 3. The source says: The dotted line represents the urate formed in the presence of unactivated MPO.
We postulate that tissue hypoxia, the degree of which will be determined by the degree of inflammation and vascular function, has impact on plasma urate concentration. Myocardial ischemia results in accelerated loss of ATP and a corresponding buildup of urate levels in rat hearts (Am. J. Physiol. Heart Circ. Physiol., 2004, 286, H677-H684; J. Biol. Chem., 1995, 270, 18797-18803). Furthermore, increased myocardial production of urate contributes to systemic urate levels and correlates to NYHA class in heart failure patients (Circ. J., 2006, 70, 1006-1011).

activated MPO, sequence (P05164 49-745): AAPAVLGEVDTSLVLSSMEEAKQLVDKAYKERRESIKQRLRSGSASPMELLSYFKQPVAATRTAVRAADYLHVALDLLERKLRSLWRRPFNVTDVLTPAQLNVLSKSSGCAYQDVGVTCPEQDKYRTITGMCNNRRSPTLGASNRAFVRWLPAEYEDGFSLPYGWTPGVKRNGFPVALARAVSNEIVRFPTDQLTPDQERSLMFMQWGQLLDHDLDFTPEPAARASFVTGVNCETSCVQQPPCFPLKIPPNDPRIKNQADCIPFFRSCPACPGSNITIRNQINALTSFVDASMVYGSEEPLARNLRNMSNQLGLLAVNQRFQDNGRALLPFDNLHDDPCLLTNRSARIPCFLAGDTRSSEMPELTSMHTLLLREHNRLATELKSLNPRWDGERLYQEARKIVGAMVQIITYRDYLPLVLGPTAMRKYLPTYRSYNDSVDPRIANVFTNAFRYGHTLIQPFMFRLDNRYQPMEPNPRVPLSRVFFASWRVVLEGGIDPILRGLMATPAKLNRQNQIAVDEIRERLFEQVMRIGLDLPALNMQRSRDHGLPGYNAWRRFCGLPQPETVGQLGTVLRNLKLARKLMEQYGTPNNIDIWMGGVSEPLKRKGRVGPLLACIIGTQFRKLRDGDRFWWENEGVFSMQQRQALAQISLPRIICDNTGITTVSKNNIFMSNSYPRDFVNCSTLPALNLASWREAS

`C[C@@H](N)c1cc(Cl)ccc1Cn1c(=S)[nH]c(=O)c2[nH]ccc21` [Example 3, 1-{2-[(1R)-1-Aminoethyl]-4-chlorobenzyl}-2-thioxo-1,2,3,5-tetrahydro-4H-pyrrolo[3,2-d]pyrimidin-4-one]: the “Inhibition of urate production by activated MPO” value is recorded as “concentration-dependently inhibited”.
